System: Saccharomyces cerevisiae ABC16-Green Monster
Assay: growth inhibition at single dose (up to 150 µM), below the 70% cut-off for dose-response; higher = more potent
Conditions: 18 h; 30 °C; YPD
How it was run: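 Percent growth inhibition is the reported value. Drug-sensitive S. cerevisiae ABC16-Green Monster cultures in log phase (OD600 0.1–0.2), 200 µl per well in 96-well plates, received each library compound once at 150 µM in biological duplicates, with untreated cultures run alongside. Growth was followed by OD600 at 0 h and after 18 h at 30 °C. Dose-response was not done for compounds below 70% in both replicates.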

Cc1cc(C2=NNC(=NC3CC3)SC2)c(C)n1-c1ccccn1
growth inhibition at single dose: < 70%

CCOC(=O)Cc1ccc(NC(=O)c2ccc(C(C)(C)C)cc2)cc1
growth inhibition at single dose: < 70%

O=C1Nc2ccc(Br)cc2C12NCCc1c2[nH]c2ccccc12 (centres undefined)
growth inhibition at single dose: < 70%

CCCCc1c(C)nc2c(OC)cccc2c1O
growth inhibition at single dose: < 70%

Cc1nn(C)c(C)c1CC(=O)Nc1ccc(-n2cnc3ccccc32)cc1
growth inhibition at single dose: < 70%

N#C/C(=N\Nc1cc(C(F)(F)F)ccc1OCC(F)(F)F)S(=O)(=O)c1ccccc1
growth inhibition at single dose: < 70%

c1ccc2c(c1)CN(CC1CC1)CC1(CCN(Cc3c[nH]c4cnccc34)CC1)O2
growth inhibition at single dose: < 70%

O=C(N[C@H](Cc1ccccc1)C(=O)Nc1ccccc1N1CCOCC1)c1cccs1
growth inhibition at single dose: < 70%

Cc1cc(N2CCN(C)CC2)n2ncc(-c3ccccc3Cl)c2n1
growth inhibition at single dose: < 70%

COc1ccc2c(c1OC)C(=O)N1c3ccccc3N=C(c3ccc(C)cc3)CC21 (centres undefined)
growth inhibition at single dose: < 70%

COc1cccc(-c2nn(C)c3sc(C(=O)NCCN4CCN(c5ccccc5F)CC4)cc23)c1
growth inhibition at single dose: < 70%

CCOc1ccc(N2C(N)=NC(N)=NC2(C)C)cc1
growth inhibition at single dose: < 70%

CC(C)(C)CC(C)(C)NCC(O)COc1ccc2c(c1)CCC2 (centres undefined)
growth inhibition at single dose: < 70%

O=C1N/C(=N\C2CCCC2)S/C1=C\c1ccc2c(c1)OCCO2
growth inhibition at single dose: < 70%

CC1=C(C(=O)Nc2ccccc2)C(c2ccco2)C(C#N)=C(SCc2ccccc2Cl)N1 (centres undefined)
growth inhibition at single dose: < 70%

O=C(Nc1ccc(C23CC4CC(CC(c5ccccc5)(C4)C2)C3)cc1)c1cccs1
growth inhibition at single dose: < 70%

O=[N+]([O-])c1cn2c(n1)OC[C@@H](OCc1ccc(OC(F)(F)F)cc1)C2
growth inhibition at single dose: < 70%

CCOC(=O)c1c(C)[nH]c(C(=O)Nc2cccc(C)n2)c1C
growth inhibition at single dose: < 70%

COc1ccc(F)cc1CN(Cc1ccc(C(=O)NC2CC2)cc1)Cc1ccco1
growth inhibition at single dose: < 70%

COc1ccc(-c2cc3ncnc(NCc4ccc(N5CCN(C)CC5)nc4)c3s2)cc1
growth inhibition at single dose: < 70%

CC(C)c1ccc(C2C3CCc4ccccc4C3=NN2C)cc1 (centres undefined)
growth inhibition at single dose: < 70%

O=C(Nc1cnc2ccccc2c1)c1cccc(-n2cnnn2)c1
growth inhibition at single dose: < 70%

Cc1ccc(S(=O)(=O)Nc2ccc(CN3CCN(C(=O)c4cccc(C#N)c4)CC3)cc2)cc1
growth inhibition at single dose: < 70%

O=C(NNc1cccc(F)n1)C(F)(F)F
growth inhibition at single dose: < 70%

COC(=O)c1ccc(C2C3=C(O)CC(c4ccc(F)cc4)CC3=Nc3ccccc3N2C(=O)c2ccccc2)cc1 (centres undefined)
growth inhibition at single dose: < 70%

COc1cccc(Nc2nc(N)c3ccccc3n2)c1
growth inhibition at single dose: < 70%

CCCN(CCC)CCCNC(=O)c1cc2c(-c3ccc(OC)c(OC)c3)nn(C)c2s1
growth inhibition at single dose: < 70%

CC(C)(C(=O)Nc1ccc(F)cc1)n1cc(-c2ccccc2F)cn1
growth inhibition at single dose: < 70%

O=C(Nc1nc2cc3c(cc2s1)OCCO3)c1cccc2c[nH]nc12
growth inhibition at single dose: < 70%

CCOC(=O)c1c(C)[nH]c(C(=O)Nc2ncccc2C)c1C
growth inhibition at single dose: < 70%

Cc1ccc(C(=O)COC(=O)Cc2n[nH]c(=O)c3ccccc23)s1
growth inhibition at single dose: < 70%

COc1ccc2cc(CNc3ncnc4n[nH]cc34)ccc2c1
growth inhibition at single dose: < 70%

CC(C)(C)C(=O)Nc1ccc(-c2nc3ncccc3o2)c(Cl)c1
growth inhibition at single dose: < 70%

CN(C(=O)CSc1nnc(COc2ccccc2F)n1N)C1CCCCC1
growth inhibition at single dose: < 70%
